Reference: patent US20260265273A1, “SOLID FORM OF FUSED RING COMPOUND, AND PREPARATION METHOD THEREFOR AND USE THEREOF” (APPLIED PHARMACEUTICAL SCIENCE, INC., priority 2022, published 2026)
In brackets after ≈: the same amount, converted by molar mass.

Legend:
[1] = Solubility Test I (stepwise solvent addition); format: physicochemical; conditions: thermodynamic from solid, room temperature
Procedure: About 2 mg of the crystal form A sample prepared according to Example 2 was weighed out and added to an HPLC vial, and the corresponding solvent was added stepwise (50/50/200/700 μL in sequence), followed by oscillation until the solid was completely dissolved. If the sample was still not completely dissolved after 1 mL of the solvent was added, no more solvent was added. The solubility range was calculated based on the mass of the solid sample, the volume of the solvent added, and the observed dissolution results, and the results are summarized in Table 3-1.

[2] = Solubility Test II (saturated solubility by HPLC); format: physicochemical; conditions: for solubility at 24 h: 37 °C, thermodynamic from solid
Procedure: Chromatographic column: Waters XTERRA RP18, 4.6 mm×150 mm, 3.5 μm or an equivalent chromatographic column. […] The gradient elution conditions are shown in Table 3-2. pH 4.5 acetate buffer: 0.59806 g of sodium acetate trihydrate was added to a 200-mL measuring flask and dissolved in an appropriate amount of water; 1.6 mL of glacial acetic acid was added; and the mixture was diluted to volume to obtain the pH 4.5 acetate buffer. pH 6.8 phosphate buffer: 1.38501 g of potassium dihydrogen phosphate and 0.18086 g of sodium hydroxide were added to the same 200-mL measuring flask; and the mixture was dissolved in water and diluted to volume to obtain the pH 6.8 phosphate buffer. 10.0 mL of each medium was precisely measured, and the media were placed into different 25-mL measuring flasks; an appropriate amount of each test crystal form was added; and the flasks were sealed and oscillated in an oscillator at 37° C. for 24 h to obtain supersaturated solutions. pH 6.8 phosphate buffer sample solution: the supersaturated solution prepared using the pH 6.8 phosphate buffer medium was filtered to obtain the pH 6.8 phosphate buffer sample solution. Water sample solution: the supersaturated solution prepared using the water medium was filtered to obtain the water sample solution. pH 4.5 acetate buffer sample solution: the supersaturated solution prepared using the pH 4.5 acetate buffer medium was filtered, and 1.0 mL of the filtrate was precisely measured and placed into a 10-mL measuring flask; the filtrate was diluted to volume with the pH 4.5 acetate buffer medium, and 1.0 mL of the solution was then precisely measured and placed into the 10-mL measuring flask; and the solution was diluted to volume with methanol to obtain the pH 4.5 acetate buffer sample solution. (ii) Preparation of crystal form A sample solution: pH 6.8 phosphate buffer sample solution: the supersaturated solution prepared using the pH 6.8 phosphate buffer medium was filtered to obtain the pH 6.8 phosphate buffer sample solution. Water sample solution: the supersaturated solution prepared using the water medium was filtered to obtain the water sample solution. pH 4.5 acetate buffer sample solution: the supersaturated solution prepared using the pH 4.5 acetate buffer medium was filtered, and 1.0 mL of the filtrate was precisely measured and placed into a 10-mL measuring flask; the filtrate was diluted to volume with the pH 4.5 acetate buffer medium, and 1.0 mL of the solution was then precisely measured and placed into a 25-mL measuring flask; and the solution was diluted to volume with methanol to obtain the pH 4.5 acetate buffer sample solution. Each medium sample solution was taken, 10 μL of each test sample solution was precisely measured and injected into a liquid chromatograph according to the chromatography conditions described above, and the chromatogram was recorded. The saturated solution degree of each medium was calculated according to the formula below. In the formula: WR=sample weight of control solution, mg; PR=purity factor of control; • AS=peak area of main peak in test solution: DS=dilution factor of test solution; • AR=peak area of main peak in control solution; DR=dilution factor of control solution;

[3] = Solid-state stability test (XRPD, HPLC purity); format: physicochemical
[4] = Hygroscopicity test (DVS); format: physicochemical
Procedure: Dynamic vapor sorption (DVS) curves were acquired on a DVS Intrinsic in SMS (Surface Measurement Systems). The relative humidity at 25° C. was corrected with the deliquescence points of LiCl, Mg(NO3)2, and KCl.

[5] = Pharmacokinetic experiment in SD rats; format: in vivo; conditions: oral intragastric 10 mg/kg
Procedure: Six SPF-grade SD rats were prepared and weighed before administration. The dose of administration was calculated based on the weight. […] These administration solutions were orally and intragastrically administered at 10 mg/kg. The rats were weighed before administration, and the dose of administration was calculated based on the weight. 3 rats were used for each crystal form. The administration solutions were orally and intragastrically administered, followed by collection of samples via the jugular vein or other suitable means at the following time points: 0.25 […], and 24 h. About 0.20 mL of each sample was collected, and the plasma was separated out by centrifugation within 2 h. The compound I was detected, and plasma drug concentration-time curves were plotted. The pharmacokinetic parameters were calculated by utilizing WinNonlin according to the plasma concentration data at different time points.

[6] = 25° C./60% RH/uncovered, 2 weeks
[7] = 25° C./60% RH/uncovered, 4 weeks
[8] = 25° C./60% RH/uncovered, 6 weeks
[9] = 40° C./75% RH/uncovered, 2 weeks
[10] = 40° C./75% RH/uncovered, 4 weeks
[11] = 40° C./75% RH/uncovered, 6 weeks

CCOc1cc(-c2ccc(N3CC4CC(C3)N4Cc3ccc(OC)nc3)nc2)c2c3cn[nH]c3nn2c1 (single isomer, unassigned) [Crystal form A]
solubility ([1]; organic solvent or mixture, solvent 1,4-Dioxane): 2000 to 6700 µg/mL (≈ 4.03 to 13.5 mM)
solubility ([1]; organic solvent or mixture, solvent 2-MeTHF): 2400 to 8000 µg/mL (≈ 4.83 to 16.1 mM)
solubility ([1]; organic solvent or mixture, solvent ACN): < 2200 µg/mL
solubility ([1]; organic solvent or mixture, solvent Acetone, undissolved sample completely dissolved at 50° C. ~1 h): < 1900 µg/mL
solubility ([1]; organic solvent or mixture, solvent Anisole, undissolved sample completely dissolved at 50° C. ~1 h): < 2200 µg/mL
solubility ([1]; organic solvent or mixture, solvent CHCl3): 20000 to 40000 µg/mL (≈ 40.3 to 80.6 mM)
solubility ([1]; organic solvent or mixture, solvent CPME, undissolved sample completely dissolved at 50° C. ~1 h): < 2000 µg/mL
solubility ([1]; organic solvent or mixture, solvent DCM): 7700 to 23000 µg/mL (≈ 15.5 to 46.3 mM)
solubility ([1]; organic solvent or mixture, solvent DMSO): 21000 to 42000 µg/mL (≈ 42.3 to 84.6 mM)
solubility ([1]; organic solvent or mixture, solvent EtOAc, undissolved sample completely dissolved at 50° C. ~1 h): < 2200 µg/mL
solubility ([1]; organic solvent or mixture, solvent EtOH, undissolved sample completely dissolved at 50° C. ~1 h): < 1900 µg/mL
solubility ([1]; organic solvent or mixture, solvent IPA, undissolved sample completely dissolved at 50° C. ~1 h): < 2000 µg/mL
solubility ([1]; organic solvent or mixture, solvent IPAC): < 2200 µg/mL
solubility ([1]; organic solvent or mixture, solvent MIBK): < 2200 µg/mL
solubility ([1]; organic solvent or mixture, solvent MTBE): < 2200 µg/mL
solubility ([1]; organic solvent or mixture, solvent MeOH, undissolved sample completely dissolved at 50° C. ~1 h): < 2100 µg/mL
solubility ([1]; organic solvent or mixture, solvent THE): 1900 to 6300 µg/mL (≈ 3.83 to 12.7 mM)
solubility ([1]; organic solvent or mixture, solvent Toluene): < 2000 µg/mL
solubility ([1]; organic solvent or mixture, solvent n-Heptane): < 2000 µg/mL
solubility ([1]; water, solvent H2O): < 2300 µg/mL
Saturated solubility ([2]; pH 4.5 acetate buffer, 37° C., 24 h, listed as crystal form A): 14.54508 mg/mL
solubility at 24 h ([2]; pH 6.8 phosphate buffer, pH 6.8, aqueous buffer): 0.04 µg/mL (≈ 8.06e-05 mM)
solubility at 24 h ([2]; water): 0.61 µg/mL (≈ 0.00123 mM)
Purity (area %) [3, 6]: 99.95 area %
Relative to initial purity (%) [3, 6]: 99.99%
Crystal form change ([3]; 25° C./60% RH/uncovered, 2 weeks, XRPD): No change
Purity (area %) [3, 7]: 99.94 area %
Relative to initial purity (%) [3, 7]: 99.98%
Crystal form change ([3]; 25° C./60% RH/uncovered, 4 weeks, XRPD): No change
Purity (area %) [3, 8]: 99.96 area %
Relative to initial purity (%) [3, 8]: 100.00%
Crystal form change ([3]; 25° C./60% RH/uncovered, 6 weeks, XRPD): No change
Purity (area %) [3, 9]: 99.96 area %
Relative to initial purity (%) [3, 9]: 100.00%
Crystal form change ([3]; 40° C./75% RH/uncovered, 2 weeks, XRPD): No change
Purity (area %) [3, 10]: 99.96 area %
Relative to initial purity (%) [3, 10]: 100.00%
Crystal form change ([3]; 40° C./75% RH/uncovered, 4 weeks, XRPD): No change
Purity (area %) [3, 11]: 99.95 area %
Relative to initial purity (%) [3, 11]: 99.99%
Crystal form change ([3]; 40° C./75% RH/uncovered, 6 weeks, XRPD): No change
Purity (area %) ([3]; 60° C./sealed, 24 h): 99.96 area %
Relative to initial purity (%) ([3]; 60° C./sealed, 24 h): 100.00%
Crystal form change ([3]; 60° C./sealed, 24 h, XRPD): No change
HPLC purity under the test conditions ([3]; all stability conditions (60° C. sealed 24 h; 25° C./60% RH and 40° C./75% RH uncovered 2, 4, 6 weeks)): not significantly reduced
crystal form under the test conditions ([3]; all stability conditions, XRPD): not changed
hygroscopicity evaluation ([4]; DVS at 25° C., 0% RH-95% RH, according to Chinese Pharmacopoeia 2015 Edition): slightly hygroscopic
hygroscopic weight gain ([4]; DVS, 25° C./80% RH, listed as crystal form A): about 1.1%
crystal form after the DVS test (XRPD) ([4]; after DVS test): not changed
AUC(0-t) ([5]; SD, rat, plasma, po, 10 mg/kg, 1 mg/mL in 5% DMSO in normal saline, compound I in plasma, 0.25-24 h, read-out: AUC(0-t)): 19100 ng·h/mL
in vivo absorption ([5]; comparison of crystal forms): significantly superior to that of the crystal form B
